According to ChEMBL document CHEMBL5370660, “Design of a Supersoft Topical JAK Inhibitor, Which Is Effective in Human Skin but Rapidly Deactivated in Blood” (J Med Chem, 2023):
Values after ≈ are worked out from the molar mass of the structure shown.

Legend:
[1] = target: JAK2/JAK1 (Homo sapiens, UniProt O60674+P23458); assay: Inhibition of JAK1/2-mediated STAT1 phosphorylation in human M07E cells preincubated for 30 mins followed by IFN-alpha stimulation measured after 15 mins by flow cytometry; type: cell-based
[2] = target: Tyrosine-protein kinase JAK2 (Homo sapiens, UniProt O60674); assay: Inhibition of GST-fused JAK2 (808 to 1132 residues)(unknown origin) using Carboxyfluorescein-Ahx-GGEEEEYFELVKKKK peptide as substrate incubated for 30 mins in presence of ATP by caliper microfluidic mobility shift assay
[3] = target: T1, JAK3/JAK1 (Homo sapiens, UniProt P23458+P52333); assay: Inhibition of JAK1/3-mediated STAT5 phosphorylation in human whole blood incubated for 30 mins followed by IL-2 addition measured after 15 mins by flow cytometry; type: tissue-based
[4] = target: T2, Tyrosine-protein kinase JAK3 (Homo sapiens, UniProt P52333); assay: Inhibition of GST-fused JAK3 (811 to 1124 residues)(unknown origin) using Carboxyfluorescein-Ahx-GGEEEEYFELVKKKK peptide as substrate incubated for 30 mins in presence of ATP by caliper microfluidic mobility shift assay
T2 sequence (P52333 whole entry): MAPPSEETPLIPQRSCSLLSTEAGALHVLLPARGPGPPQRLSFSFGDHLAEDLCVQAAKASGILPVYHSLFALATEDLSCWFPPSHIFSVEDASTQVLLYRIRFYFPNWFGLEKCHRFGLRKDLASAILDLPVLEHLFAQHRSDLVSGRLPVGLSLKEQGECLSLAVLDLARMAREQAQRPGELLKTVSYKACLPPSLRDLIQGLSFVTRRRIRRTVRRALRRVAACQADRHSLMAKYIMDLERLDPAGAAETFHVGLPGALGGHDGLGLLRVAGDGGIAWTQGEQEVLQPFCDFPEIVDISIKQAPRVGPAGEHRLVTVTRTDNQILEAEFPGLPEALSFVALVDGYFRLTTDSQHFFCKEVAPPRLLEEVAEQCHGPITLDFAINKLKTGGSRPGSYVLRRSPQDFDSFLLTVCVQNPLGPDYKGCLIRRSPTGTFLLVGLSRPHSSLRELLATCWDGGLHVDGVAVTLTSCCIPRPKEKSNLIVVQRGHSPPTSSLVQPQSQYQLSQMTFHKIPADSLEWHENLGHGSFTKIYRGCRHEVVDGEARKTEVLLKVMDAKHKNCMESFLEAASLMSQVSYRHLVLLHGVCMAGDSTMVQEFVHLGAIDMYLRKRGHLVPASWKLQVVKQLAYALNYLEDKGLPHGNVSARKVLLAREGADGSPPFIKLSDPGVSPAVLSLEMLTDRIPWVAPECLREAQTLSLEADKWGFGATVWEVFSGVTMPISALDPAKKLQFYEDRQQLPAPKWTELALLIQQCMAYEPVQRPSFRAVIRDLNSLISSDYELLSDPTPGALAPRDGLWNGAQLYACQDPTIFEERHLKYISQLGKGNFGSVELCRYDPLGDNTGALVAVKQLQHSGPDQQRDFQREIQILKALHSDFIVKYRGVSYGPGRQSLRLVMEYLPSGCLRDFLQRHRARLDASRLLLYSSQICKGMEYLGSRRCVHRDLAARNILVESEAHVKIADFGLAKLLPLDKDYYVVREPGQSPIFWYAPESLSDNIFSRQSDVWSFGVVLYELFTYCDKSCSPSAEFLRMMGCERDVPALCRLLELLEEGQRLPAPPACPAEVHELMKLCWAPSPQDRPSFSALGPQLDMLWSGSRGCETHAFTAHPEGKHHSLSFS

[5] = target: T1, JAK3/JAK1; assay: Inhibition of JAK1/3-mediated STAT5 phosphorylation in human M07E cells preincubated for 30 mins followed by IL-15 stimulation measured after 15 mins by flow cytometry; type: cell-based
[6] = target: Tyrosine-protein kinase JAK1 (Homo sapiens, UniProt P23458); assay: Inhibition of GST-fused JAK1 (866 to 1154 residues)(unknown origin) using FITC-Ahr-KKSRGDYMTMQIG-NH2 peptide as substrate incubated for 30 mins in presence of ATP by caliper microfluidic mobility shift assay
[7] = Metabolic stability in human skin S9 fraction measured upto 120 mins by LC-MS analysis; type: ADME, subcellular
[8] = Stability in human whole blood assessed as half life at 1 uM incubated upto 8 hrs by LC-MS/MS analysis; type: ADME, tissue-based
[9] = Permeability of compound; type: ADME; settings: not told; read-out: permeability
[10] = Saturation solubility of compound in PEG400/transcutol/benzyl alcohol/water mixture using amorphous form of sample; type: physicochemical
[11] = Stability of compound under temperature stress assessed as compound degradation at 50 degreeC measured after 7 days using amorphous form of sample; type: physicochemical; settings: time 7 day; read-out: Drug degradation
[12] = Lipophilicity, LogD of compound; type: physicochemical; settings: octanol/water
[13] = Solubility of the compound at pH 6.8 using amorphous form of sample; type: physicochemical; settings: buffer
[14] = target: Non-receptor tyrosine-protein kinase TYK2 (Homo sapiens, UniProt P29597); assay: Inhibition of GST-fused TYK2 (888 to 1187 residues)(unknown origin) using FITC-Ahr-KKSRGDYMTMQIG-NH2 peptide as substrate incubated for 30 mins in presence of ATP by caliper microfluidic mobility shift assay
[15] = Thermodynamic solubility of the compound at pH 6.8 using crystalline form of sample; type: physicochemical; settings: read-out: Therm_solubility
[16] = Saturation solubility of compound in PEG400/transcutol/benzyl alcohol/water mixture using crystalline form of sample; type: physicochemical
[17] = Drug penetration in fresh human skin explant using Franz diffusion cell model assessed as concentration of 2-(6-((5-carbamoyl-4-((2-methoxyphenyl)amino)pyridin-2-yl)amino)pyridin-3-yl)acetic acid metabolite in receiver fluid at 3 % administered topically preincubated overnight followed by fresh media replacement in receiver fluid without compound and subsequently stimulated with IL-4/IL-13 measured after 24 hrs by LC-MS/MS analysis; type: ADME, tissue-based, Skin of body; settings: topical_or_ocular
[18] = Stability of compound under temperature stress assessed as compound degradation at 50 degreeC measured after 7 days using crystalline form of sample; type: physicochemical; settings: time 7 day; read-out: Drug degradation
[19] = Stability of compound under light stress assessed as compound decomposition under sunlight with intensity of 4000 KJ/m2, irradiation of 250 W/m2, wavelength of >290 nm, temperature of 37 degreeC for 4 hrs using crystalline form of sample; type: ADME; settings: read-out: Drug degradation
[20] = Stability of compound in fresh human skin explant using Franz diffusion cell model assessed as compound concentration in dermis at 3 % administered topically preincubated overnight followed by fresh media replacement in receiver fluid without compound and subsequently stimulated with IL-4/IL-13 measured after 40 hrs by LC-MS/MS analysis; type: ADME, tissue-based, Skin of body; settings: topical or ocular, read-out: Ct

Sequence of Tyrosine-protein kinase JAK1 (P23458 whole entry, the tested form may be a part): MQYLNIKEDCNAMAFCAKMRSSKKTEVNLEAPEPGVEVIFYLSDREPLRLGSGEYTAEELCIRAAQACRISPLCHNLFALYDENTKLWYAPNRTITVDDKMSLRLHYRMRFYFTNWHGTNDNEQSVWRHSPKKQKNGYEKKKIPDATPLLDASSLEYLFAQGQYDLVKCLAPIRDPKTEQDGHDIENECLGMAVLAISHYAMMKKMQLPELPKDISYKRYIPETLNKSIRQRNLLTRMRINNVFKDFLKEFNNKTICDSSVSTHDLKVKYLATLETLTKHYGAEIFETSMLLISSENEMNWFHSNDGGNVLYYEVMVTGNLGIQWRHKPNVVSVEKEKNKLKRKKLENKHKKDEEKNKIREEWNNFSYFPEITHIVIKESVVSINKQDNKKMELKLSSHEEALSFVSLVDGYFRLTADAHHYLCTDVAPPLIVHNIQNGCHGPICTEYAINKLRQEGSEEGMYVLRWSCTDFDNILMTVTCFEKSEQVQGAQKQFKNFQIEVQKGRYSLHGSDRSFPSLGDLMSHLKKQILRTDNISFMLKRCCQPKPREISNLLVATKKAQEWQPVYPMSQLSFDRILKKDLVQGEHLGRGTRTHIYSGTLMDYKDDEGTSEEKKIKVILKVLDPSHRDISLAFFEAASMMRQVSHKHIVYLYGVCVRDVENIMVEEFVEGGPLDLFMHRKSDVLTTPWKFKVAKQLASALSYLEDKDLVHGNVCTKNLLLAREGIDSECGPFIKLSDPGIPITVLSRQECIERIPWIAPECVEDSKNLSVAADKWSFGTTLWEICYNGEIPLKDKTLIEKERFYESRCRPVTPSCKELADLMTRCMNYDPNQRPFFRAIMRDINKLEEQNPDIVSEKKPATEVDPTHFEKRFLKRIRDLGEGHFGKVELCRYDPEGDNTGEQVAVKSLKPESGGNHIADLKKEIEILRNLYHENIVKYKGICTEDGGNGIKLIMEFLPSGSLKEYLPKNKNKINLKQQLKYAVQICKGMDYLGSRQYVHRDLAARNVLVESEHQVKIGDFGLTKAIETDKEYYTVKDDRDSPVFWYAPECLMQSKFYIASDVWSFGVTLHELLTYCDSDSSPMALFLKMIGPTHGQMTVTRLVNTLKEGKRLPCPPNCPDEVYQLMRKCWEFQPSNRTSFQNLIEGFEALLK
Sequence of JAK2/JAK1 (P23458 whole entry, the tested form may be a part): as above
Sequence of JAK2/JAK1 (O60674 whole entry, the tested form may be a part): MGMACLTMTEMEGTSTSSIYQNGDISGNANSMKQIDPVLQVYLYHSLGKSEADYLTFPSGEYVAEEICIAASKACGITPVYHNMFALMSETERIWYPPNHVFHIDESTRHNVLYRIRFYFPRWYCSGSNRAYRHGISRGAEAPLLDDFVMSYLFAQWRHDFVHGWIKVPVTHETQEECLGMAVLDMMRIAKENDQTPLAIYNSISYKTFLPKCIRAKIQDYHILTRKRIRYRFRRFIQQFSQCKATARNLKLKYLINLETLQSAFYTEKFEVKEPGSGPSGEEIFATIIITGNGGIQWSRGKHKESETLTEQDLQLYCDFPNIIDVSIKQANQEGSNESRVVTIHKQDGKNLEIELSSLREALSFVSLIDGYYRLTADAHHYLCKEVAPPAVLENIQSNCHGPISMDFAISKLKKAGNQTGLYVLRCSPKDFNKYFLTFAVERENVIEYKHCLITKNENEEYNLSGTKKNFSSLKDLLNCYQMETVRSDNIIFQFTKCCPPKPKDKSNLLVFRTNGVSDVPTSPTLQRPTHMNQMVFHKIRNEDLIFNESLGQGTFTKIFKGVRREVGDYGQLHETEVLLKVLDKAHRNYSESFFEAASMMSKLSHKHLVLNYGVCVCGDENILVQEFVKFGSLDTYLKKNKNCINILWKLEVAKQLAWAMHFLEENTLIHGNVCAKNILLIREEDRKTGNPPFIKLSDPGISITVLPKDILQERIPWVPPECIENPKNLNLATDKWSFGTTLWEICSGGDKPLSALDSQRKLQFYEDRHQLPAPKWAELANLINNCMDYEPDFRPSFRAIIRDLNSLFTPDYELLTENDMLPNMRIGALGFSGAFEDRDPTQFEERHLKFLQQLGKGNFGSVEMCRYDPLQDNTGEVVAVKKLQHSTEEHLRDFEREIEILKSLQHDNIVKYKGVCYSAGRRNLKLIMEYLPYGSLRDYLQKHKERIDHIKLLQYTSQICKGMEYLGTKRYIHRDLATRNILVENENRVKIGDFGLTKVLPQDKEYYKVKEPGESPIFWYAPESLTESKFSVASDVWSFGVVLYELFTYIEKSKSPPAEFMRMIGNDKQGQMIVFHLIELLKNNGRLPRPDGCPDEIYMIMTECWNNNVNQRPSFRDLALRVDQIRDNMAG
Sequence of Non-receptor tyrosine-protein kinase TYK2 (P29597 whole entry, the tested form may be a part): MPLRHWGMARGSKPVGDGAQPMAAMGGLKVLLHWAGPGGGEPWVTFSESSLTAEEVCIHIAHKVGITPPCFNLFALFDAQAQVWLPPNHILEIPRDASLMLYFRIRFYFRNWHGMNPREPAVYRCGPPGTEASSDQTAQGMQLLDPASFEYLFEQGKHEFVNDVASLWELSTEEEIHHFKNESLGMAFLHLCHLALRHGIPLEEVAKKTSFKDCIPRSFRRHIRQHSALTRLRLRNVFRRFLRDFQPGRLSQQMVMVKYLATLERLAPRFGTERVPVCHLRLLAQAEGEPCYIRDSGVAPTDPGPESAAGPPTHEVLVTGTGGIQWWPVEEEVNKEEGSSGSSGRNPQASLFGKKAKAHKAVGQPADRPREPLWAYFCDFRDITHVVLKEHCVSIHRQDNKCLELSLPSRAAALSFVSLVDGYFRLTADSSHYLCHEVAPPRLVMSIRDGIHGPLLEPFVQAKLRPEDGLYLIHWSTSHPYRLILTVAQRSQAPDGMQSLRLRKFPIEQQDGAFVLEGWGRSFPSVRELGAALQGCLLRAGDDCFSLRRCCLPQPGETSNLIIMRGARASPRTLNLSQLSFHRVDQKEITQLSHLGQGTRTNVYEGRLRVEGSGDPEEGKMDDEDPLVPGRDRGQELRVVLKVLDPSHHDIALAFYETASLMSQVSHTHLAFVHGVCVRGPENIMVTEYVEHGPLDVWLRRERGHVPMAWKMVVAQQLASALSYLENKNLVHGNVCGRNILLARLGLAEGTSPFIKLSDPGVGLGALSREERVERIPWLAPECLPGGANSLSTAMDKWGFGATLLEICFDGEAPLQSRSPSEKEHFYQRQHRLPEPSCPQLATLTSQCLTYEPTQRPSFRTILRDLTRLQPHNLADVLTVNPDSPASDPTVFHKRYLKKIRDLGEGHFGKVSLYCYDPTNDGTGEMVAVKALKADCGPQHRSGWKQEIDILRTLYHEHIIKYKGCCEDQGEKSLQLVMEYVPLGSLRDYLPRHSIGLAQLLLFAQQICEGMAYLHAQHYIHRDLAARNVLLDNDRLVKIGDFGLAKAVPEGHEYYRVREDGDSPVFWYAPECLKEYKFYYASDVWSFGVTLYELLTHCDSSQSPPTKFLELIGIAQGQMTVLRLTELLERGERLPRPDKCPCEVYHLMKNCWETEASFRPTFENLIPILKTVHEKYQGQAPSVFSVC
T1 sequence (P23458 whole entry, one chain of several, the tested form may be a part): as the sequence (P23458 whole entry, the tested form may be a part) above
Sequence of Tyrosine-protein kinase JAK2 (O60674 whole entry, the tested form may be a part): as the sequence (O60674 whole entry, the tested form may be a part) above

| SMILES | IC50 [1] | IC50 [2] | IC50 [3] | IC50 [4] | IC50 [5] | IC50 [6] | half-life [7] | half-life at 1 µM [8] | Papp [9] | solubility thermodynamic [10] | degraded at 168 h [11] | logD [12] | solubility [13] | IC50 [14] | solubility thermodynamic [15] | solubility thermodynamic [16] | Drug uptake [17] | degraded at 168 h [18] | degraded at 4 h [19] | concentration at 40 h, 3 % [20] |
| --- | --- | --- | --- | --- | --- | --- | --- | --- | --- | --- | --- | --- | --- | --- | --- | --- | --- | --- | --- | --- |
| COC[C@H](C)OC(=O)Cc1ccc(Nc2cc(Nc3ccccc3OC)c(C(N)=O)cn2)nc1 | 58 nM | 2 nM | > 50000 nM | 1 nM | 115 nM | 1 nM | 12 min |  |  |  |  |  |  |  |  |  |  |  |  |  |
| NC(=O)c1cnc(Nc2cccc(O)n2)cc1Nc1ccccc1Cl | > 10000 nM |  |  |  |  |  | > 200 min | > 60 min |  |  |  |  |  |  |  |  |  |  |  |  |
| CCOC(=O)Cc1ccc(Nc2cc(Nc3ccccc3Cl)c(C(N)=O)cn2)nc1 | 60 nM | 17 nM | 12200 nM | 18 nM | 24 nM | 20 nM | 14 min | 7 min | 11 ×10⁻⁶ cm/s | 8700 µg/mL (≈ 20400 µM) | 1% | 4.6 | 0.1 µg/mL (≈ 0.235 µM) |  |  |  |  |  |  |  |
| CCOC(=O)COc1ccc(Nc2cc(Nc3ccccc3Cl)c(C(N)=O)cn2)nc1 | 185 nM | 76 nM | 7530 nM | 69 nM | 141 nM | 69 nM | 4 min |  |  |  |  |  |  | 54 nM |  |  |  |  |  |  |
| CCOC(=O)CCc1ccc(Nc2cc(Nc3ccccc3Cl)c(C(N)=O)cn2)nc1 | 185 nM | 25 nM | 2500 nM | 25 nM | 171 nM | 27 nM | 8 min |  |  |  |  |  |  | 37 nM |  |  |  |  |  |  |
| CCOC(=O)c1ccc(Nc2cc(Nc3ccccc3Cl)c(C(N)=O)cn2)nc1 | 288 nM | 110 nM | 10300 nM | 170 nM | 189 nM | 120 nM |  |  |  |  |  |  |  |  |  |  |  |  |  |  |
| COc1ccccc1Nc1cc(Nc2ccc(CC(=O)O[C@H]3CCOC3)cn2)ncc1C(N)=O | 44 nM | 5 nM | 16000 nM | 5 nM | 89 nM | 5 nM | 39 min | 5 min | 20 ×10⁻⁶ cm/s |  |  | 3 |  | 2 nM | 31 µg/mL (≈ 66.9 µM) | > 18000 µg/mL | 0.124 µM | 2.4% | 3.3% | 54 µM |
| NC(=O)c1cnc(Nc2ccc(CC(=O)O)cn2)cc1Nc1ccccc1Cl | 3860 nM | 19 nM | > 50000 nM | 10 nM | 2580 nM | 9 nM | < 240 min | > 240 min | 0.9 ×10⁻⁶ cm/s |  |  | 0.4 |  | 10 nM |  |  |  |  |  |  |
| COc1ccccc1Nc1cc(Nc2ccc(CC(=O)O[C@@H]3CCOC3)cn2)ncc1C(N)=O | 48 nM | 4 nM | > 50000 nM | 3 nM | 67 nM | 3 nM | 8 min |  |  |  |  |  |  | 2 nM |  |  |  |  |  |  |
| COCCOC(=O)Cc1ccc(Nc2cc(Nc3ccccc3OC)c(C(N)=O)cn2)nc1 | 14 nM | 6 nM | > 30000 nM | 4 nM | 63 nM | 6 nM | 5 min |  |  |  |  | 2.9 |  | 2 nM |  |  |  |  |  |  |
| CCOC(=O)Cc1ccc(Nc2cc(Nc3ccccc3OC)c(C(N)=O)cn2)nc1 | 58 nM | 26 nM | 10200 nM | 56 nM | 80 nM | 19 nM | 12 min | 5 min | 28 ×10⁻⁶ cm/s |  |  | 2.9 |  | 21 nM | 1 µg/mL (≈ 2.37 µM) | ≥ 9000 µg/mL |  | 2% | 0% |  |
| CC(C)OC(=O)Cc1ccc(Nc2cc(Nc3ccccc3Cl)c(C(N)=O)cn2)nc1 | 115 nM | 27 nM | 1200 nM | 28 nM | 71 nM | 29 nM | 67 min | 65 min |  |  |  |  |  |  |  |  |  |  |  |  |
